Test results as given in patent publication US11579088B2, “Device and method for imaging shortwave infrared fluorescence” (Massachusetts Institute of Technology, priority 2016, dated 2023).

Test system: liver
Test: Detection of indocyanine green across SWIR wavelengths in vivo (hepatobiliary clearance)
Conditions: mouse, intravenous 1.7 mg/kg, SWIR fluorescence detection
Description: When injected into a living system, indocyanine green is metabolized by the liver and excreted by the liver and bile ducts by a process called hepatobiliary clearance. This process was observed, noninvasively, by injecting a solution of indocyanine green intravenously into a mouse and using an SWIR imaging system as described herein to observe the fluorescence of indocyanine green. The dye was injected at a dose of 1.7 mg/kg which is below the maximum recommended dose of indocyanine green in humans. […] Despite the fact that 1500 nm is far from the peak emission of indocyanine green, there is sufficient emission intensity from the tail of the emission peak in this wavelength region to obtain a SWIR fluorescence image. Separately, hepatobiliary excretion of ICG into the small intestine in a mouse was also imaged using a near video rate imaging of 19.7 frames per second using a 1200 nm long-pass filter, which enabled capturing the peristaltic movements of the small intestine. Although the frame rate was slower, 2.0 frames per second, it was possible to image the ICG clearance using a 1500 nm long-pass filter, capturing wavelengths between roughly 1500 and 1620 nm.

For `CC1(C)C(/C=C/C=C/C=C/C=C2\N(CCCCS(=O)(=O)O)c3ccc4ccccc4c3C2(C)C)=[N+](CCCCS(=O)(=O)[O-])c2ccc3ccccc3c21` [ICG, indocyanine green], the “accumulation in the liver” value was “observed”.
